Assay [1] relates to C57L/J mice. Briefly: Echocardiography: contractile reserve (isoproterenol response), myocardial performance index, IRT after irradiation. Format: in vivo. Particulars: irradiated mice; BH4 5 mg/kg oral once daily 6 days from 24 h post-IR. How it is done:
Both male and female C57L/J wild-type 6-8-week-old mice were purchased from Jackson Laboratory (Bar Harbor, ME). The mice were housed with a 12:12 h light-dark schedule and access to water and food ad libitum. The experiments were conducted under the guidelines of laboratory animals for biomedical research published by the National Institutes of Health (rev. 2011). The study protocol was approved by the Institutional Animal Care and Use Committee of Virginia Commonwealth University.
(§1) Equal numbers of male and female mice were distributed to each group. While under ketamine/xylazine anesthesia (100 mg/kg and 10 mg/kg, respectively) mice received 5 Gy total body irradiation (TBI), immediately followed by a top-up dose of 6.5 Gy to the thorax, for a total thoracic dose of 11.5 Gy, using a Varian 21 EX LINAC (Palo Alto, CA). Twenty-four hours post-irradiation, mice were treated once daily for 6 days by oral gavage with 1 mg/kg sepiapterin or 5 mg/kg BH4 dissolved in water (FIG. 1).
All mice underwent transthoracic echocardiography at baseline (before irradiation (IR)), at 8, 30, 60, 90 and 180 days, under light anesthesia (30 mg/kg pentobarbital sodium). Echocardiography was performed with the Vevo770 imaging system (VisualSonics, Toronto, Ontario, Canada) and a 30-MHz probe. The heart was visualized in B-mode from parasternal short-axis and apical views. The left ventricular (LV) end-diastolic diameter (EDD), LV end-systolic diameter (ESD), LV anterior wall diastolic thickness (AWDT), and LV posterior wall diastolic thickness (PWDT), LV anterior wall systolic thickness (AWST), and LV posterior wall systolic thickness (PWST) were measured at M-mode, according to the American Society of Echocardiography recommendations. LV ejection fraction (EF), and LV mass were calculated from the measurements of wall thickness and chamber diameters. The LVEF was derived using the Teicholz formula (LVEF=[LVEDD3−LVESD3]/LVEDD3), as previously described. The transmitral LV outflow tract Doppler spectra (E, A, ET) was recorded from an apical four-chamber view, and the myocardial performance index (MPI) was calculated as the […] isovolumetric contraction time (ICT) and isovolumetric relaxation time (IRT) divided by the ejection time (ED. The investigators performing and reading the echocardiograms were blinded to the treatment allocation. A beta-adrenergic agonist, isoproterenol (Sigma Aldrich, St. Louis, MO, USA) 20 ng/mouse, was used to assess cardiac contractility in irradiated mice without SP treatment. Cardiac contractility (contractile reserve) was expressed as percentage change in LVEF measured at rest (LVEFr) and 3 min after isoproterenol injection (LVEFi) and calculated as [(LVEFi−LVEFr)/LVEFr]*100. Measurements of the contractile reserve were taken at baseline, 8, 30, 60, 90 and 180 days after IR. Echocardiogram assessment was performed by an operator blinded to treatment allocation.

The subject of assay [2] is C57L/J mice. The experiment in a line: Assessment of lung injury by breathing rate (MouseOx) after irradiation. The format is in vivo. Particulars: irradiated mice, 5 mg/kg BH4 for 6 days, vs vehicle. How it is done: as §1
The breathing rate was measured every other week starting in week 6 using the Mouse Ox system (STARR Life Sciences Corp., Allison Park, PA). The animal was placed under ketamine/xylazine anesthesia and shaved in the area of analysis. 10 min post injection the animal was placed in a supine position with the sensor clipped to the upper thigh. The breathing rate was recorded for 3 min. The breathing rate was calculated using an algorithm in the Mouse Ox software.

The subject of assay [3] is C57L/J mice. The experiment in a line: Survival over 180 days post IR (Kaplan Meyer). The format is in vivo. Particulars: irradiated mice; oral BH4 starting 24 hours after radiation. The protocol: as §1
To determine whether the improved cardiopulmonary function impacted overall survival the mice were followed over 180 days post IR.

The next assay relates to exosomal miRNAs. The experiment in a line: Serum exosomal miRNA expression after irradiation. The format is in vivo, mice. Particulars: irradiated mice; BH4 treatment (FIG. 6A). The protocol: Blood was collected by cardiac puncture using EDTA vials. Blood samples were centrifuged 3,000×g for 25 minutes, and plasma fraction was aliquoted and saved in a vapor phase of liquid nitrogen. Exosomes were isolated from the plasma of mice at the time points shown in FIGS. 6A-6C using an Exosome isolation kit from 101Bio. Exosome concentrations were quantified by EXOCET Exosome Quantitation Kit (System Biosciences). Equal exosome number from 5 animals were combined for each time point, and total exosomal RNA was extracted by using miRNeasy Micro Kit (QIAGEN). For the miRNAs expression profiling the miRCURY LNA™ Universal RT microRNA PCR assay (QIAGEN) and ExiLENT SYBR® Green Maser Mix (QIAGEN) were used. The initial estimation of exosomal miRNAs expression was performed by using Serum/Plasma LNA™ miRNA PCR Panel (Cat. #YAHS-106Y. QIAGEN) on the QuantStudio 5 RT-PCR machine (Applied Biosystems).
The first group included let-7a-5p, miR-1, miR-106b-3p, miR-106b-5p, miR-126-3p, miR-181a-5p, miR-335-3p, and miR-335-5p. […] The second group included let-7g-5p, let-7i-5p, and miR-16-5p. There were no significant differences between males and females both in terms of exosomal miRNA expression altered by IR or the effects of sepiapterin on miRNA expression.

Entries after “also recorded” stand apart in the source; their conditions may differ.

As for `C[C@H](O)[C@H](O)[C@H]1CNc2[nH]c(N)nc(=O)c2N1` [BH4, Tetrahydrobiopterin], in the assay on C57L/J mice [1], the contractile reserve entry is on record as “enhanced contractile reserve”; the “systolic and diastolic function” value is “improved systolic and diastolic function”. Moreover, the “development of lung injury” value in the assay on C57L/J mice [2] is on record as “significant delay in the development of lung injury”. In addition, in the assay with C57L/J mice [2] (5 mg/kg), the “lung function (breathing rate)” value is “significantly reduced impairment of lung function at all points measured; also recorded: decreasing breathing frequency”. The survival result with C57L/J mice [3] is recorded as “increased survival”. In addition, in the assay with exosomal miRNAs, the “exosomal expression of miR-15b-3p, miR-106a-5p, miR-133b, miR-136-5p, miR-451a, miR-1, miR-335-3p, let-7d-3p, let-7c-5p” value is on record as “increases in expression”.

Values taken from patent US12667569B2, “Use of sepiapterin and metabolites thereof to treat radiation exposure” (PTC Therapeutics MP, Inc., priority 2019, dated 2026).
